According to US4514403A, “Hydrouracil compounds” (Yoshitomi Pharmaceutical Industries Ltd., priority 1980, dated 1985):
Structures can show the parent of a compound that is named as a salt.

Experiments:
Mouse jumping test = conditions: administration at a lethal dose
[1] = Bradykinin nociception test; conditions: for ED50: Rattus norvegicus, read-out: Bradykinin Nociception Test ED50
[2] = test system: evoked potentials in central nervous system; experiment: Effect on the various evoked potentials in central nervous system; format: in vivo, Male Wistar rats; design: key to Amplitude of Evoked Responses, VP-COR / Amplitude of Evoked Responses, HIP-AMY / Amplitude of Evoked Responses, HIP-SEP: -: No change; --: No change; (+): Levallorphan antagonism; (-): Levallorphan antagonism
Procedure: Male Wistar rats, weighing 300-350 g, were used under ethyl ether anesthesia. The trachea and femoral vein were cannulated for artificial respiration and drug injection, respectively. Immobilization of the rat was maintained by gallamine thioethiodide (10 mg/kg) given intravenously every one hours. All wound edges were infiltration with carbocaine hydrochloride. The experiments began after at least 2 hours had elapsed from discontinuance of ether anesthesia. The COR (somatosensory cortex) evoked potentials by VP (neucleus ventralis posterior thalamus) stimulation (VP - COR evoked potential) were recorded from somatosensory cortex, through a silver electrode applied directly to the cortex. In order to record VP and MRF (midbrain reticular formation) evoked potentials by sciatic nerve stimulation or AMY (amygdala) and SEP (septum) evoked potentials by HIP (hippocampus) stimulation, bipolar stainless steel electrodes were stereotaxically placed into the VP, MRF, AMY, SEP and HIP. The stimuli were delivered to various sites every 2 seconds from a stimulation and consisted of 0.1 msec rectangular pulses (twice threshold intensity). The evoked responses were visualized on an oscilloscope. All records were made up of 20 superimposed tracings.

Hot plate test = conditions: Rattus norvegicus, sc, read-out: Hot Plate Test ED50
Procedure: (§1) Phenylquinone writhing test, electric stimuli test, tooth pulp nociception test, hot plate test and AgNO3 arthritis test were performed according to the methods described by Y. Marayama et al. in "Arzneimittel-Forschung", 28 (11), 2102-2107 (1978), and bradykinin nociception test was performed by the method described by G. F. Blane in "Journal of Pharmacy and Pharmacology", 19, 367-373 (1967).

Electric stimuli test = conditions: Mus musculus, read-out: Electric Stimuli Test ED50
Tolerance test = format: in vivo; conditions: continuous administration
[3] = Antagonism by levallorphan in electric stimuli test; conditions: electric stimuli test in mice; levallorphan (narcotic antagonist)
central nervous system = experiment: Activity on central nervous system; conditions: in vivo
[4] = Analgesic activity (overall)
Procedure: as §1

[5] = Tooth pulp nociception test
Procedure: as §1

[6] = Phenylquinone writhing test; conditions: for ED50: Mus musculus, read-out: Phenylquinone Writhing Test ED50
Procedure: as §1

[7] = rat, in vivo
in vivo = conditions: rat
[8] = rat, in vivo; remark: listed apart in the source
[9] = calculated from inhibition (%) in a low dose

SMILES: CN1C(=O)CCN(C2CCN(CC=Cc3ccccc3)CC2)C1=O [Test compound A, 1-(1-cinnamyl-4-piperidyl)-3-methyl-hydrouracil hydrochloride]
- jumping symptom (Mouse jumping test): did not cause any jumping symptom
- ED50 ([1]; po): 40 mg/kg
- ED50 ([1]; sc): 4 mg/kg
- Relative potency (Test compound A = 1), Bradykinin Nociception Test ([1]; calculated from ED50): 1
- Relative potency (Test compound A = 1), Bradykinin Nociception Test [1, 9]: 1
- Inhibition (%) of Occurrence of Pain ([1]; rats, 2.5 mg/kg s.c.): 38%
- ED50 (AgNO3 arthritis test; Rattus norvegicus, sc, read-out: AgNO3 Arthritis Test ED50): 7 mg/kg
- Relative potency (Test compound A = 1), AgNO3 Arthritis Test (AgNO3 arthritis test; calculated from ED50): 1
- Relative potency (Test compound A = 1), AgNO3 Arthritis Test (AgNO3 arthritis test; [9]): 1
- Inhibition (%) of Occurrence of Pain (AgNO3 arthritis test; rats, 5 mg/kg s.c.): 42%
- levallorphan antagonism of VP - COR response [2]: levallorphan did not antagonize the response
- Amplitude of Evoked Responses, HIP-AMY ([2]; 5 mg/kg i.v.): --
- Amplitude of Evoked Responses, HIP-SEP ([2]; 5 mg/kg i.v.): --
- Amplitude of Evoked Responses, VP-COR ([2]; 5 mg/kg i.v.): --
- Amplitude of Evoked Responses, HIP-AMY ([2]; 10 mg/kg i.v.): --
- Amplitude of Evoked Responses, HIP-SEP ([2]; 10 mg/kg i.v.): --
- Amplitude of Evoked Responses, HIP-AMY ([2]; 25 mg/kg i.v.): --
- Amplitude of Evoked Responses, HIP-SEP ([2]; 25 mg/kg i.v.): --
- HIP - AMY evoked potential ([2]; i.v.): no effect
- HIP - SEP evoked potential ([2]; i.v.): no effect
- amplitude of the VP - COR evoked potential ([2]; i.v.): reduced the amplitude of the VP - COR evoked potential
- ED50 (Hot plate test): 10 mg/kg
- ED50 (Electric stimuli test; po): 200 mg/kg
- ED50 (Electric stimuli test; sc): 23 mg/kg
- cross tolerance against codeine (Tolerance test): did not show a cross tolerance against codeine
- tolerance (decrease of effects) (Tolerance test): did not cause a significant decrease of effects
- Influence of levallorphan on analgesic activity [3]: did not influence the analgesic activity
- muscle relaxant activity (central nervous system): weak
- reserpine potentiating activity (central nervous system): weak
- suppression of spontaneous locomotor activity (central nervous system): weak
- analgesic activity in a low dose [4]: stronger than tramadol and pentazocine
- Relative potency (Test compound A = 1), Tooth Pulp Nociception Test ([5]; calculated from ED50): 1
- Relative potency (Test compound A = 1), Tooth Pulp Nociception Test [5, 9]: 1
- increasing rate in threshold ([5]; rabbits, 2.5 mg/kg i.v.): 75%
- ED50 ([6]; po): 17 mg/kg
- ED50 ([6]; sc): 1 mg/kg
- Relative potency (Test compound A = 1), Phenylquinone Writhing Test ([6]; calculated from ED50): 1
- Relative potency (Test compound A = 1), Phenylquinone Writhing Test [6, 9]: 1
- Inhibition (%) of Occurrence of Pain ([6]; mice, 0.5 mg/kg s.c.): 48%
- body weight reduction [7]: not reduced
- LD50 (in vivo; ip): 150 mg/kg
- LD50 (in vivo; po): 450 mg/kg
- LD50 (in vivo; sc): 300 mg/kg
- compensatory adjustment against codeine [8]: had not compensatory adjustment against codeine
